From patent US20100234377A1 (priority 2007, published 2010)

target: T1, human Prostaglandin D Synthase (GST2) (Homo sapiens, UniProt O60760); experiment: Homogeneous biochemical assay of human Prostaglandin D Synthase (GST2) based on its glutathion-S-transferase activity (GSH conjugation to monochlorobimane, fluorescence); conditions: not given
T1 construct: the open reading frame of human Prostaglandin D Synthase was amplified from cDNA; made in house; host or cells: E. coli TOP10F'
Text: Homogeneous, Biochemical Assay Monitoring the Activity of Human Prostaglandin D Synthase Based on the Glutathion-S-Transferase Activity of the Enzyme
Prostaglandin D2 synthesis by Prostaglandin D synthase (GST2) requires transfer of Glutathion (GSH) to the substrate, Prostaglandin H2. […] Since the Prostaglandin D2 synthesis is absolutely dependent on the GST activity of the enzyme, assays monitoring the GST activity should allow to identify specific inhibitors of Prostaglandin D2 synthetic activity. The assay principle used is based on enzymatic conjugation of GSH to Monochlorobimane (MCB), that becomes fluorescent upon this chemical modification. Therefore, the enzymatic reaction can be monitored by total fluorescence measurement.
In brief, the open reading frame of human Prostaglandin D Synthase was amplified from cDNA using the primer pair:
This construct allows prokaryotic expression of Prostaglandin D Synthase as fusion protein with a N-terminal hexa-histidine tag, referred to as NHis-Prostaglandin D Synthase.
Expression of NHis-Prostaglandin D Synthase was in E. coli TOP10F′ (Invitrogen, Germany, cat. no. C3030-03). […] When the culture had reached a density corresponding to an A600 of 0.6, an equal volume of room temperature LB/ampicillin was added. […] Cells harvested by centrifugation were resuspended in 50 mM tris(hydroxymethyl)aminomethane hydrochloride pH 7.5 (Tris/HCl, Sigma, cat. no. T5941).
Removal of unbound material was with 100 ml lysis buffer. Elution was with 50 ml of 50 mM Tris/HCl pH 7.5, 300 mM imidazol (Sigma, Germany, cat. no. I2399)/HCl pH 7.5). […] Aliquots were shock frozen in liquid nitrogen and stored at −80° C.
All assay components were diluted in reaction buffer, 50 mM MES/KOH (pH 6.1), 0.7 mM GSH (Sigma, G4251), 2 mM MgCl2 (Sigma, M2670), 0.05% Pluronic F127 (Sigma, P2443), and stored on ice prior to use. Compounds were diluted in 90% DMSO yielding final assay concentrations from the picomolar to three digit micromolar range.
Total fluorescent measurement was carried out with excitation and emission wavelength of 390 and 460 nm, respectively (BMG Fluostar Optima).

T1 sequence (O60760 whole entry): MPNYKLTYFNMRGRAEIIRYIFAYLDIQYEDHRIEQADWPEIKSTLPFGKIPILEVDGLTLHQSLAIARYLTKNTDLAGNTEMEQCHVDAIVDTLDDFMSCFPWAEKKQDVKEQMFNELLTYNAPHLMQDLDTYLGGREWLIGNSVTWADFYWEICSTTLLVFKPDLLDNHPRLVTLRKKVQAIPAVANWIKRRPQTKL

Q: For CCN(CC)C(=O)c1ccc(NC(=O)N2CCN(C(=O)c3cccc(F)c3)CC2)cc1 [Compound 102, 4-(3-Fluoro-benzoyl)-piperazine-1-carboxylic acid (4-diethylcarbamoyl-phenyl)-amide], which IC50 is on record?
A: Its IC50 is 0.101 to 1 µM.

same assay, conditions: given beside the compound name in Examples 1 to 167; read-out: Potency Range (GST2 IC50)

Q: Which IC50 does the source give for CC(=O)Nc1ccc2nc(NC(=O)N3CCN(C(=O)c4cccc(F)c4)CC3)sc2c1 [Compound 84, 4-(3-Fluoro-benzoyl)-piperazine-1-carboxylic acid (6-acetylamino-benzothiazol-2-yl)-amide] here?
A: The IC50 was 0.011 to 0.1 µM.

Q: With N#Cc1cc(NC(=O)N2CCN(C(=O)c3cccc(F)c3)CC2)ccc1F [Compound 85, 4-(3-Fluoro-benzoyl)-piperazine-1-carboxylic acid (3-cyano-4-fluoro-phenyl)-amide] as the compound, how does the IC50 read?
A: The IC50 was 0.101 to 1 µM.

Q: How did the IC50 turn out when O=C(Nc1cccc(-c2ccncc2)c1)N1CCN(C(=O)c2cccc(F)c2)CC1 [Compound 86, 4-(3-Fluoro-benzoyl)-piperazine-1-carboxylic acid (3-pyridin-4-yl-phenyl)-amide] was run?
A: The IC50 was 0.101 to 1 µM.

Q: Which IC50 does the source give for O=C(Nc1cccc(-c2cccnc2)c1)N1CCN(C(=O)c2cccc(F)c2)CC1 [Compound 87, 4-(3-Fluoro-benzoyl)-piperazine-1-carboxylic acid (3-pyridin-3-yl-phenyl)-amide] here?
A: The IC50 was 0.101 to 1 µM.

Q: For O=C(Nc1ccc(Br)c(F)c1)N1CCN(C(=O)c2cccc(F)c2)CC1 [Compound 88, 4-(3-Fluoro-benzoyl)-piperazine-1-carboxylic acid (4-bromo-3-fluoro-phenyl)-amide], which IC50 is on record?
A: The IC50 was 0.011 to 0.1 µM.

Q: O=C(Nc1ccc(-c2cc[nH]n2)cc1)N1CCN(C(=O)c2cccc(F)c2)CC1 [Compound 89, 4-(3-Fluoro-benzoyl)-piperazine-1-carboxylic acid [4-(1H-pyrazol-3-yl)-phenyl]-amide] was tested. Which IC50 did it give?
A: Its IC50 is 0.011 to 0.1 µM.

Q: With Cc1nc(-c2ccc(NC(=O)N3CCN(C(=O)c4cccc(F)c4)CC3)cc2)cs1 [Compound 90, 4-(3-Fluoro-benzoyl)-piperazine-1-carboxylic acid [4-(2-methyl-thiazol-4-yl)-phenyl]-amide] as the compound, how does the IC50 read?
A: Its IC50 is 0.011 to 0.1 µM.

Q: How did the IC50 turn out when O=C(Nc1ccc(S(=O)(=O)N2CCOCC2)cc1)N1CCN(C(=O)c2cccc(F)c2)CC1 [Compound 91, 4-(3-Fluoro-benzoyl)-piperazine-1-carboxylic acid [4-(morpholine-4-sulfonyl)-phenyl]-amide] was run?
A: Its IC50 is 0.011 to 0.1 µM.

Q: Which IC50 does the source give for O=C(Nc1cccc(S(=O)(=O)N2CCOCC2)c1)N1CCN(C(=O)c2cccc(F)c2)CC1 [Compound 92, 4-(3-Fluoro-benzoyl)-piperazine-1-carboxylic acid [3-(morpholine-4-sulfonyl)-phenyl]-amide] here?
A: The IC50 was 0.101 to 1 µM.

Q: Which IC50 does the source give for CNC(=O)c1cccc(NC(=O)N2CCN(C(=O)c3cccc(F)c3)CC2)c1 [Compound 93, 4-(3-Fluoro-benzoyl)-piperazine-1-carboxylic acid (3-methylcarbamoyl-phenyl)-amide] here?
A: The IC50 was 0.101 to 1 µM.

Q: For COC(=O)c1cc(NC(=O)N2CCN(C(=O)c3cccc(F)c3)CC2)ccc1F [Compound 94, 2-Fluoro-5-{[4-(3-fluoro-benzoyl)-piperazine-1-carbonyl]-amino}-benzoic acid methyl ester], which IC50 is on record?
A: The IC50 was 0.101 to 1 µM.

Q: COC(=O)c1ccc(NC(=O)N2CCN(C(=O)c3cccc(F)c3)CC2)cc1F [Compound 95, 2-Fluoro-4-{[4-(3-fluoro-benzoyl)-piperazine-1-carbonyl]-amino}-benzoic acid methyl ester] was tested. Which IC50 did it give?
A: The IC50 was 0.101 to 1 µM.

Q: For O=C(O)c1ccc(NC(=O)N2CCN(C(=O)c3cccc(F)c3)CC2)cc1F [Compound 96, 2-Fluoro-4-{[4-(3-fluoro-benzoyl)-piperazine-1-carbonyl]-amino}-benzoic acid], which IC50 is on record?
A: Its IC50 is 0.101 to 1 µM.

Q: Which IC50 does the source give for O=C(Nc1ccc(C(=O)N2CCOCC2)c(F)c1)N1CCN(C(=O)c2cccc(F)c2)CC1 [Compound 97, 4-(3-Fluoro-benzoyl)-piperazine-1-carboxylic acid [3-fluoro-4-(morpholine-4-carbonyl)-phenyl]-amide] here?
A: Its IC50 is 0.101 to 1 µM.

Q: O=C(Nc1ccc(F)nc1)c1ccc(NC(=O)N2CCN(C(=O)c3cccc(F)c3)CC2)cc1F [Compound 99, 4-(3-Fluoro-benzoyl)-piperazine-1-carboxylic acid [3-fluoro-4-(6-fluoro-pyridin-3-ylcarbamoyl)-phenyl]-amide] was tested. Which IC50 did it give?
A: The IC50 was 0.101 to 1 µM.

Q: Which IC50 does the source give for O=C(O)c1ccc(NC(=O)N2CCN(C(=O)c3cccc(F)c3)CC2)cc1 [Compound 100, 4-{[4-(3-Fluoro-benzoyl)-piperazine-1-carbonyl]-amino}-benzoic acid] here?
A: Its IC50 is 0.101 to 1 µM.

Q: For O=C(Nc1ccc(F)nc1)c1ccc(NC(=O)N2CCN(C(=O)c3cccc(F)c3)CC2)cc1 [Compound 103, 4-(3-Fluoro-benzoyl)-piperazine-1-carboxylic acid [4-(6-fluoro-pyridin-3-ylcarbamoyl)-phenyl]-amide], which IC50 is on record?
A: Its IC50 is 0.101 to 1 µM.

Q: How did the IC50 turn out when NC(=O)c1ccc(NC(=O)N2CCN(C(=O)c3cccc(F)c3)CC2)cc1F [Compound 104, 4-(3-Fluoro-benzoyl)-piperazine-1-carboxylic acid (4-carbamoyl-3-fluoro-phenyl)-amide] was run?
A: Its IC50 is 0.101 to 1 µM.

Q: How did the IC50 turn out when Nc1cccc(NC(=O)N2CCN(C(=O)c3cccc(F)c3)CC2)c1 [Compound 106, 4-(3-Fluoro-benzoyl)-piperazine-1-carboxylic acid (3-amino-phenyl)-amide] was run?
A: Its IC50 is 0.101 to 1 µM.

Q: For O=C(Nc1cccc(NC(=O)N2CCN(C(=O)c3cccc(F)c3)CC2)c1)c1ccccn1 [Compound 107, 4-(3-Fluoro-benzoyl)-piperazine-1-carboxylic acid {3-[(pyridine-2-carbonyl)-amino]-phenyl}-amide], which IC50 is on record?
A: Its IC50 is 0.011 to 0.1 µM.

Q: For O=C(Nc1cccc(NC(=O)N2CCN(C(=O)c3cccc(F)c3)CC2)c1)c1cccc[n+]1[O-] [Compound 108, 4-(3-Fluoro-benzoyl)-piperazine-1-carboxylic acid {3-[(1-oxy-pyridine-2-carbonyl)-amino]-phenyl}-amide], which IC50 is on record?
A: The IC50 was 0.101 to 1 µM.

Q: Which IC50 does the source give for O=C(Nc1cccc(NC(=O)N2CCN(C(=O)c3cccc(F)c3)CC2)c1)c1cc[n+]([O-])cc1 [Compound 110, 4-(3-Fluoro-benzoyl)-piperazine-1-carboxylic acid {3-[(1-oxy-pyridine-4-carbonyl)-amino]-phenyl}-amide] here?
A: Its IC50 is 0.101 to 1 µM.

Q: With O=C(Nc1cccc(NC(=O)N2CCN(C(=O)c3cccc(F)c3)CC2)c1)c1ccc(F)nc1 [Compound 111, 4-(3-Fluoro-benzoyl)-piperazine-1-carboxylic acid {3-[(6-fluoro-pyridine-3-carbonyl)-amino]-phenyl}-amide] as the compound, how does the IC50 read?
A: Its IC50 is 0.101 to 1 µM.

Q: With Nc1ccc(NC(=O)N2CCN(C(=O)c3cccc(F)c3)CC2)cc1 [Compound 112, 4-(3-Fluoro-benzoyl)-piperazine-1-carboxylic acid (4-amino-phenyl)-amide] as the compound, how does the IC50 read?
A: The IC50 was 0.101 to 1 µM.

Q: For Nc1ccc(NC(=O)N2CCN(C(=O)c3cc(F)ccc3F)CC2)cc1 [Compound 113, 4-(2,5-Difluoro-benzoyl)-piperazine-1-carboxylic acid (4-amino-phenyl)-amide], which IC50 is on record?
A: Its IC50 is 0.101 to 1 µM.

Q: With O=C(Nc1ccc(NC(=O)N2CCN(C(=O)c3cccc(F)c3)CC2)cc1)c1ccccn1 [Compound 114, 4-(3-Fluoro-benzoyl)-piperazine-1-carboxylic acid {4-[(pyridine-2-carbonyl)-amino]-phenyl}-amide] as the compound, how does the IC50 read?
A: The IC50 was 0.011 to 0.1 µM.

Q: O=C(Nc1ccc(NC(=O)N2CCN(C(=O)c3cccc(F)c3)CC2)cc1)c1cccc[n+]1[O-] [Compound 115, 4-(3-Fluoro-benzoyl)-piperazine-1-carboxylic acid {4-[(1-oxy-pyridine-2-carbonyl)-amino]-phenyl}-amide] was tested. Which IC50 did it give?
A: Its IC50 is 0.011 to 0.1 µM.

Q: With O=C(Nc1ccc(NC(=O)N2CCN(C(=O)c3cccc(F)c3)CC2)cc1)c1ccc[n+]([O-])c1 [Compound 116, 4-(3-Fluoro-benzoyl)-piperazine-1-carboxylic acid {4-[(1-oxy-pyridine-3-carbonyl)-amino]-phenyl}-amide] as the compound, how does the IC50 read?
A: The IC50 was 0.011 to 0.1 µM.

Q: How did the IC50 turn out when O=C(Nc1ccc(NC(=O)N2CCN(C(=O)c3cccc(F)c3)CC2)cc1)c1ccc(F)nc1 [Compound 117, 4-(3-Fluoro-benzoyl)-piperazine-1-carboxylic acid {4-[(6-fluoro-pyridine-3-carbonyl)-amino]-phenyl}-amide] was run?
A: Its IC50 is 0.101 to 1 µM.

Q: With O=C(Nc1ccc(NC(=O)N2CCN(C(=O)c3cc(F)ccc3F)CC2)cc1)c1cccc[n+]1[O-] [Compound 118, 4-(2,5-Difluoro-benzoyl)-piperazine-1-carboxylic acid {4-[(1-oxy-pyridine-2-carbonyl)-amino]-phenyl}-amide] as the compound, how does the IC50 read?
A: Its IC50 is 0.011 to 0.1 µM.

Q: How did the IC50 turn out when O=C(Nc1ccc(NC(=O)N2CCN(C(=O)c3cc(F)ccc3F)CC2)cc1)c1ccc[n+]([O-])c1 [Compound 119, 4-(2,5-Difluoro-benzoyl)-piperazine-1-carboxylic acid {4-[(1-oxy-pyridine-3-carbonyl)-amino]-phenyl}-amide] was run?
A: Its IC50 is 0.011 to 0.1 µM.
